From US5498609A, “Benzoazepinyl compounds as oxytocin and vasopressin antagonists” (Otsuka Pharmaceutical Company, Limited, priority 1992, dated 1996)
Counter-ions that a name gives are not always drawn.

Legend:
Oxytocin receptor = molecular target: T1, Oxytocin receptor (Rattus norvegicus, UniProt P70536); experiment: Oxytocin receptor binding assay ([3H]-oxytocin, rat uterine muscle membrane); conditions: for IC50: 25° C., one hour, pH 8.0; for inhibition at 10 µM: 10^-5 M test compound, read-out: Inhibitory Rate (%) at 10^-5 M (oxytocin receptor binding assay)
T1 construct: from tissue; host or cells: rat uterine muscle membrane (diethylstilbestrol-treated)
T1 sequence (P70536 1-388): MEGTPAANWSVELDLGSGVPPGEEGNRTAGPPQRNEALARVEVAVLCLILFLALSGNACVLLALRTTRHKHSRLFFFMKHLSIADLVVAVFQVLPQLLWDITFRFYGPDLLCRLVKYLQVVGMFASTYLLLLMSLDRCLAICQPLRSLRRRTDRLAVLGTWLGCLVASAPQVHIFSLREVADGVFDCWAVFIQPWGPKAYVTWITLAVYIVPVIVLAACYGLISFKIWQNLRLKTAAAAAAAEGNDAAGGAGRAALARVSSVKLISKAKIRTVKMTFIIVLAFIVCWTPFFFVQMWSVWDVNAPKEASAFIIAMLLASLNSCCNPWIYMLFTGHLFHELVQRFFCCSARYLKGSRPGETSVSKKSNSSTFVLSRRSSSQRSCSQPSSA
Method: Experiment 3: Oxytocin receptor binding assay
According to the method of W. Y. Chan et al. [Endocrinology, 126, 2095-2101 (1990)], uterine muscle is taken out from a rat which has previously been injected subcutaneously with diethylstilbestrol the day before, and homogenized, which is used as a membrane preparation. The membrane preparation (0.2 mg), [^3 H]-oxytocin (100000 dpm, 10^-9 M), a test compound (10^-9 -10^-5 M) are incubated at 25° C. for one hour in 100 mM Tris-HCl buffer (pH 8.0, 250 μl) containing a 5 mM MgCl2, 1 mM MEDTA and 0.1% BSA. The mixture is filtered through the glass filter (GF/B) so as to separate the membrane preparation binding with [^3 H]-oxytocin, and then, washed twice with the buffer (5 ml). This glass filter is put into a vial and mixed with Aquasole (liquid scintillation cocktail). The amount of [^3 H]-oxytocin binding with the membrane is measured by liquid scintillation counter. The rate of the inhibitory effect of the test compound is estimated according to the following equation.
Inhibitory Rate (%)=100-[(C1 -B)/(C0 -B)]×100
C1 : The amount of [^3 H]-oxytocin binding with the membrane in the presence of a test compound (known amount)
C0 : The amount of [^3 H]-oxytocin binding with the membrane in the absence of a test compound
B: The amount of [^3 H]-oxytocin binding with the membrane in the presence of the excess amount of oxytocin (5×10^-6 M).
The results are expressed as IC50 value, which is the concentration of the test compound required to achieve the inhibitory rate in the rate of 50%.

V1 receptor = V1 receptor (Rattus norvegicus, UniProt P30560); experiment: biochemical; conditions: rat liver plasma membrane, [3H]-Arg-vasopressin, 37° C., 10 minutes, pH 8.0; read-out: IC50 in V1 receptor binding assay
Method: Experiment 1: V1 receptor binding assay
Using rat liver plasma membrane preparations prepared according to Ichihara's method [cf: Akira Ichihara, J. Bio. Chem., 258, 9283 (1983)], the plasma membrane (50000 dpm, 2×10^-10 M) of [^3 H]-Arg-vasopressin and a test compound (60 μg, 10^-8 to 10^-4 M) are incubated at 37° C. for 10 minutes in 100 mM Tris-HCl buffer (pH: 8.0) (250 μl) containing 5 mM MgCl2, 1 mM EDTA and 0.1% BSA. After incubation, the mixture is filtered three times using the glass filter (GF/F) so as to separate the membrane preparation binding with vasopressin and then washed with the buffer (5 ml). This glass filter is taken out and mixed with liquid scintillation cocktail. The amount of [^3 H]-vasopressin binding with the membrane is measured by liquid scintillation counter and the rate of the inhibitory effect of the test compound is estimated according to the following equation. [formula] C1 : The amount of [^3 H]-vasopressin binding with the membrane in the presence of the test compound (known amount)
(§1) C0 : The amount of [^3 H]-vasopressin binding with the membrane in the absence of the test compound
(§2) B1 : The amount of [^3 H]-vasopressin binding with the membrane in the presence of the excess amount of vasopressin (10^-6 M)
(§3) The results are expressed as IC50 value, which is the concentration of the test compound required to achieve the inhibitory effect in the rate of 50%.

V2 receptor = molecular target: T2, V2 receptor (Rattus norvegicus, UniProt Q00788); experiment: biochemical; conditions: rat kidney plasma membrane, [3H]-Arg-vasopressin, 4° C., pH 8.0, read-out: IC50 in V2 receptor binding assay
T2 construct: Using rat kidney plasma membrane preparations; from tissue; host or cells: rat kidney plasma membrane
Method: Experiment 2: V2 receptor binding assay
Using rat kidney plasma membrane preparations prepared according to O. Hechter's method [cf: J. Bio. Chem., 253, 3211 (1978)], the plasma membrane (100000 dpm, 4×10^-10 M) of [^3 H]-Arg-vasopressin and a test compound (0.6 mg, 10^-10 to 10^-5 M) are incubated at 4° C. for 3 hours in 100 mM Tris-HCl buffer (pH: 8.0) (250 μl) containing 5 mM MgCl2, 1 mM EDTA and 0.1% BSA. After incubation, the mixture is filtered using the glass filter (GF/F) so as to separate the membrane preparation binding with vasopressin and then washed twice with the buffer (each 5 ml). This glass filter is taken out and mixed with liquid scintillation cocktail. The amount of [^3 H]-vasopressin binding with the membrane is measured by liquid scintillation counter and the rate of the inhibitory effect of the test compound is estimated according to the following equation. [formula] C1 : The amount of [^3 H]-vasopressin binding with the membrane in the presence of the test compound (known amount)
as §1, §2, §3

Chain of V1 receptor (P30560 whole entry): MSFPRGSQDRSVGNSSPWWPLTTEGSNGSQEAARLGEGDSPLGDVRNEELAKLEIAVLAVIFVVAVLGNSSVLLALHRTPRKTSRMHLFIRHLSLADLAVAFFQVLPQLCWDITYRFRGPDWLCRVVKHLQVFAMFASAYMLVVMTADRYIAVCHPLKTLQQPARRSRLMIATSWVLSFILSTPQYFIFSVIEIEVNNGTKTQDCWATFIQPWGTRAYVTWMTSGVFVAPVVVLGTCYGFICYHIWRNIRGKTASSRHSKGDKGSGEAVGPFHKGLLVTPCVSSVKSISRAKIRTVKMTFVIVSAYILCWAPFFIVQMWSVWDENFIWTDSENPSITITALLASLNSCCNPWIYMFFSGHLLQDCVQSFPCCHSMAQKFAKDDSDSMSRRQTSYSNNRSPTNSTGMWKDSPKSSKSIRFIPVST
T2 sequence (Q00788 whole entry): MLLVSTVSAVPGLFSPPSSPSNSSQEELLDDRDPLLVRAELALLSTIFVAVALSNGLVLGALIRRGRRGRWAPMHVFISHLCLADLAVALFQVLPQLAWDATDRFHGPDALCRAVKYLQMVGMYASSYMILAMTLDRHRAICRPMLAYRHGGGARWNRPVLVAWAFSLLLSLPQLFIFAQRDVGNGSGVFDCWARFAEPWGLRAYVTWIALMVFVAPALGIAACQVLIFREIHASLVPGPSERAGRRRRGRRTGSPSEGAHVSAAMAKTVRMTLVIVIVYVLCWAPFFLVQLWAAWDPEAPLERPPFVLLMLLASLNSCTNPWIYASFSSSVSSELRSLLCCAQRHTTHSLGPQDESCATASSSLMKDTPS

IC50 (Oxytocin receptor) [nM] | IC50 (V1 receptor) [nM] | IC50 (V2 receptor) [nM] | inhibition at 10 µM (Oxytocin receptor) [%] | Compound
410 |  |  |  | CN1CCN(C(=O)CC2CCCN(C(=O)c3ccc(NC(=O)c4ccccc4Cl)nc3)c3ccc(Cl)cc32)CC1 (centres unmarked) [Compound of Ex. 107]
680 | 29 | 5.9 |  | O=C(Nc1ccc(C(=O)N2CCCC(CCN3CCOCC3)c3cc(Cl)ccc32)cn1)c1ccccc1Cl (centres unmarked) [Compound of Ex. 127]
3500 | 490 | 33 |  | O=C(O)CC1CCCN(C(=O)c2ccc(NC(=O)c3ccccc3Br)nc2)c2ccc(Cl)cc21 (centres unmarked) [Compound of Ex. 101]
1200 |  |  |  | O=C(Nc1ccc(C(=O)N2CCCC(O)(CO)c3cc(Cl)ccc32)cn1)c1ccccc1Cl (centres unmarked) [Compound of Ex. 145]
1800 | 5 | 160 |  | NC(=O)COc1ccccc1C(=O)Nc1ccc(C(=O)N2CCCCc3cc(Cl)ccc32)cn1 [Compound of Ex. 97]
 | 9 | 3 |  | CCN(CC)CCN(C)C(=O)CC1CCCN(C(=O)c2ccc(NC(=O)c3ccccc3C)nc2)c2ccc(Cl)cc21 (centres unmarked) [Compound of Ex. 105]
 | 16 | 4.6 |  | CC(=O)N1CCN(CCC2CCCN(C(=O)c3ccc(NC(=O)c4ccccc4Cl)nc3)c3ccc(Cl)cc32)CC1 (centres unmarked) [Compound of Ex. 128]
 | 117 | 19 |  | O=C(O)COC1CCCN(C(=O)c2ccc(NC(=O)c3ccccc3Cl)nc2)c2ccc(Cl)cc21 (centres unmarked) [Compound of Ex. 169]
350 |  |  |  | CCN(CC)CCN(C)C(=O)CC1CCCN(C(=O)c2ccc(NC(=O)c3ccccc3Br)nc2)c2ccc(Cl)cc21 (centres unmarked) [Compound of Ex. 120]
 | 29 | 8 |  | Cc1ccccc1C(=O)Nc1ccc(C(=O)N2CCCC(OCCn3ccnc3)c3cc(Cl)ccc32)cn1 (centres unmarked) [Compound of Ex. 178]
 | 7.1 | 3.1 |  | NC(=O)COC1CCCN(C(=O)c2ccc(NC(=O)c3ccccc3Cl)nc2)c2ccc(Cl)cc21 (centres unmarked) [Compound of Ex. 171]
 | 34 | 12 |  | Cc1ccccc1C(=O)Nc1ccc(C(=O)N2CCCC(OC(=O)CN(C)C)c3cc(Cl)ccc32)cn1 (centres unmarked) [Compound of Ex. 189]
 | 43 | 300 |  | CN(C)CCOc1ccccc1C(=O)Nc1ccc(C(=O)N2CCCCc3cc(Cl)ccc32)cn1 [Compound of Ex. 96, 7-chloro-1-{6-[2-(2-dimethylaminoethoxy)benzoyl-amino]nicotinoyl}-2,3,4,5-tetrahydro-1H-benzazepine dihydrochloride]
 | 7.8 | 8 |  | O=C(Nc1ccc(C(=O)N2CCCC(OCCNC3CCCC3)c3cc(Cl)ccc32)cn1)c1ccccc1Cl (centres unmarked) [Compound of Ex. 187]
 | 12 | 3.1 |  | O=C(Nc1ccc(C(=O)N2CCCC(CC(=O)N3CCNCC3)c3cc(Cl)ccc32)cn1)c1ccccc1Cl (centres unmarked) [Compound of Ex. 116, 7-chloro-5-(1-piperazinyl)carboxymethyl-1-[6-(2-chlorobenzoylamino)nicotinoyl]-2,3,4,5-tetrahydro-1H-benzazepine]
 | 8.4 | 2.7 |  | CCN(CC)CCN(C)C(=O)COC1CCCN(C(=O)c2ccc(NC(=O)c3ccccc3Cl)nc2)c2ccc(Cl)cc21 (centres unmarked) [Compound of Ex. 175]
 | 28 | 10 |  | Cc1ccccc1C(=O)Nc1ccc(C(=O)N2CCCC(OCCN3CCOCC3)c3cc(Cl)ccc32)cn1 (centres unmarked) [Compound of Ex. 182]

The next lines start with the compound.

Compound | IC50 (Oxytocin receptor) [nM] | IC50 (V1 receptor) [nM] | IC50 (V2 receptor) [nM] | inhibition at 10 µM (Oxytocin receptor) [%]
Cc1ccccc1C(=O)Nc1ccc(C(=O)N2CCCC(NC3CC3)c3cc(Cl)ccc32)cn1 (centres unmarked) [Compound of Ex. 77] | 1800 |  |  | 
O=C1c2ccccc2OCCN1c1ccc(C(=O)N2CCCCc3cc(Cl)ccc32)cn1 [Compound of Ex. 94, 7-chloro-1-[6-(6,7-benzo-1-oxo-4-azepin-5-on-4-yl)nicotinoyl]-2,3,4,5-tetrahydro-1H-benzazepine] | 840 | 42 | 36 | 
O=C(Nc1ccc(C(=O)N2CCCCc3cc(Cl)ccc32)cn1)c1ccccc1OCCO [Compound of Ex. 83] | 6600 | 71 | 430 | 
CCOC(=O)COc1ccccc1C(=O)Nc1ccc(C(=O)N2CCCCc3cc(Cl)ccc32)cn1 [Compound of Ex. 82] | 9700 |  |  | 
O=C(O)CCCOc1ccccc1C(=O)Nc1ccc(C(=O)N2CCCCc3cc(Cl)ccc32)cn1 [Compound of Ex. 86] |  |  |  | 17
O=C(Nc1ccc(C(=O)N2CCCCc3cc(Cl)ccc32)cn1)C1CCCCC1 [Compound of Ex. 46] | 360 |  |  | 
Cc1cccc(C(=O)Nc2ccc(C(=O)N3CCCC(O)c4cc(Cl)ccc43)cn2)c1 (centres unmarked) [Compound of Ex. 26] |  | 78 | 21 | 
Cc1ccccc1C(=O)Nc1ccc(C(=O)N2CCCC(O)c3cc(Cl)ccc32)cn1 (centres unmarked) [Compound of Ex. 25] |  | 14 | 4 | 
CC(=O)NCCOC1CCCN(C(=O)c2ccc(NC(=O)c3ccccc3C)nc2)c2ccc(Cl)cc21 (centres unmarked) [Compound of Ex. 38, 7-chloro-5-(2-acetylaminoethoxy)-1-[6-(2-methylbenzoylamino)nicotinoyl]-2,3,4,5-tetrahydro-1H-benzazepine] |  | 26 | 3 | 
CN1CCCN(C(=O)c2ccc(NC(=O)c3ccccc3Cl)nc2)c2ccc(Cl)cc21 [Compound of Ex. 53] |  | 55 | 19 | 
CN1CCN(C(=O)CCCOc2ccccc2C(=O)Nc2ccc(C(=O)N3CCCCc4cc(Cl)ccc43)cn2)CC1 [Compound of Ex. 89] | 7300 |  |  | 
O=C(Nc1ccc(C(=O)N2CCCC(O)c3cc(Cl)ccc32)cn1)c1ccccc1[N+](=O)[O-] (centres unmarked) [Compound of Ex. 29] |  | 24 | 11 | 
CNC1CCCN(C(=O)c2ccc(NC(=O)c3ccccc3Cl)nc2)c2ccc(Cl)cc21 (centres unmarked) [Compound of Ex. 80] | 1000 |  |  | 
CC(C)NCCOc1ccccc1C(=O)Nc1ccc(C(=O)N2CCCCc3cc(Cl)ccc32)cn1 [Compound of Ex. 91] |  |  |  | 38
Cc1ccccc1C(=O)Nc1cnc(C(=O)N2CCCC(O)c3cc(Cl)ccc32)s1 (centres unmarked) [Compound of Ex. 49] |  | 41 | 250 | 
Cc1ccccc1C(=O)Nc1ccc(C(=O)N2CCCC(O)c3cc(Cl)ccc32)nc1 (centres unmarked) [Compound of Ex. 50] |  | 78 | 61 | 
COC1CCCN(C(=O)c2ccc(NC(=O)c3ccccc3Cl)nc2)c2ccc(Cl)cc21 (centres unmarked) [Compound of Ex. 72] | 440 |  |  | 
